Experimental data reported in ChEMBL document CHEMBL3045501, “Anti-inflammatory activity of 2,5-dihydroxycyclohepta-2,4,6-trienone in rats” (Med Chem Res, 2010).

How the values were obtained:
[1] = system: Rattus norvegicus; assay: Toxicity in Rattus norvegicus Wistar albino (rat) assessed as mortality at 18.1 to 54.3 X 10^2 umol/kg, po; assay type: organism-based; conditions: in vivo
[2] = system: Oryctolagus cuniculus; assay: (§1) Inhibition of hyaluronidase-induced capillary permeability in albino Oryctolagus cuniculus (rabbit) assessed as area of subcutaneous spreading of trypan blue at 7.24 x 10^2 umol/kg, po pretreated 1 hr prior to mixture of hyaluronidase and trypan blue challenge measured after 5 min (reference value: 288.5 mm'2); assay type: functional
[3] = system: Rattus norvegicus; assay: Anti-inflammatory activity in Rattus norvegicus Wistar albino (rat) assessed as inhibition of carrageenan-induced paw edema at 14.48 X 10^2 umol/kg, po administered 1 hr prior to carrageenan challenge through oral gavage measured measured 4 hr after carrageenan treatment by plethysmometer; assay type: functional
[4] = system: Rattus norvegicus; assay: Toxicity in Rattus norvegicus Wistar albino (rat) assessed as lethargy at 18.1 to 36.2 X 10^2 umol/kg, po; assay type: organism-based; conditions: in vivo
[5] = system: Rattus norvegicus; assay: Anti-inflammatory activity in Rattus norvegicus Wistar albino (rat) assessed as inhibition of carrageenan-induced paw edema at 7.24 X 10^2 umol/kg, po administered 1 hr prior to carrageenan challenge through oral gavage measured measured 1 hr after carrageenan treatment by plethysmometer; assay type: functional
[6] = system: Rattus norvegicus; assay: Anti-inflammatory activity in Rattus norvegicus Wistar albino (rat) assessed as inhibition of carrageenan-induced paw edema at 14.48 X 10^2 umol/kg, po administered 1 hr prior to carrageenan challenge through oral gavage measured measured 1 hr after carrageenan treatment by plethysmometer; assay type: functional
[7] = system: Oryctolagus cuniculus; assay: as §1, with “30” for “5”, “498.8” for “288.5”; assay type: functional
[8] = Toxicity in Rattus norvegicus Wistar albino (rat) assessed as mortality at 61.54 X 10^2 umol/kg, po; assay type: organism-based; conditions: in vivo, read-out: Activity
[9] = Toxicity in po dosed Rattus norvegicus Wistar albino (rat) assessed as mortality; assay type: organism-based; conditions: in vivo
[10] = system: Rattus norvegicus; assay: Toxicity in Rattus norvegicus Wistar albino (rat) assessed as mortality at 65.16 to 68.78 X 10^2 umol/kg, po measured after 12 hr; assay type: organism-based; conditions: in vivo
[11] = system: Rattus norvegicus; assay: Toxicity in Rattus norvegicus Wistar albino (rat) assessed as drinking frequency at 18.1 to 36.2 X 10^2 umol/kg, po; assay type: organism-based; conditions: in vivo
[12] = Toxicity in Rattus norvegicus Wistar albino (rat) assessed as mortality at 57.92 X 10^2 umol/kg, po; assay type: organism-based; conditions: in vivo, read-out: Activity
[13] = system: Rattus norvegicus; assay: Anti-inflammatory activity in Rattus norvegicus Wistar albino (rat) assessed as inhibition of carrageenan-induced paw edema at 3.62 X 10^2 umol/kg, po administered 1 hr prior to carrageenan challenge through oral gavage measured 3 hr after carrageenan treatment by plethysmometer; assay type: functional
[14] = system: Rattus norvegicus; assay: Anti-inflammatory activity in Rattus norvegicus Wistar albino (rat) assessed as inhibition of carrageenan-induced paw edema at 14.48 X 10^2 umol/kg, po administered 1 hr prior to carrageenan challenge through oral gavage measured measured 3 hr after carrageenan treatment by plethysmometer; assay type: functional
[15] = system: Rattus norvegicus; assay: Toxicity in Rattus norvegicus Wistar albino (rat) assessed as lethargy at 54.3 X 10^2 umol/kg, po; assay type: organism-based; conditions: in vivo
[16] = system: Rattus norvegicus; assay: Anti-inflammatory activity in Rattus norvegicus Wistar albino (rat) assessed as inhibition of carrageenan-induced paw edema at 3.62 X 10^2 umol/kg, po administered 1 hr prior to carrageenan challenge through oral gavage measured 1 hr after carrageenan treatment by plethysmometer; assay type: functional
[17] = system: Rattus norvegicus; assay: Toxicity in Rattus norvegicus Wistar albino (rat) assessed as mortality at 68.78 X 10^2 umol/kg, po; assay type: organism-based; conditions: in vivo
[18] = system: Rattus norvegicus; assay: Toxicity in Rattus norvegicus Wistar albino (rat) assessed as animal posture at 61.54 umol/kg, po; assay type: organism-based; conditions: in vivo
[19] = system: Oryctolagus cuniculus; assay: as §1, with “3.62” for “7.24”; assay type: functional
[20] = system: Rattus norvegicus; assay: Anti-inflammatory activity in Rattus norvegicus Wistar albino (rat) assessed as inhibition of carrageenan-induced paw edema at 7.24 X 10^2 umol/kg, po administered 1 hr prior to carrageenan challenge through oral gavage measured measured 2 hr after carrageenan treatment by plethysmometer; assay type: functional
[21] = Toxicity in Rattus norvegicus Wistar albino (rat) assessed as mortality at 65.16 X 10^2 umol/kg, po; assay type: organism-based; conditions: in vivo, read-out: Activity
[22] = system: Rattus norvegicus; assay: Anti-inflammatory activity in Rattus norvegicus Wistar albino (rat) assessed as inhibition of carrageenan-induced paw edema at 3.62 X 10^2 umol/kg, po administered 1 hr prior to carrageenan challenge through oral gavage measured 4 hr after carrageenan treatment by plethysmometer; assay type: functional
[23] = system: Rattus norvegicus; assay: Anti-inflammatory activity in Rattus norvegicus Wistar albino (rat) assessed as inhibition of carrageenan-induced paw edema at 7.24 X 10^2 umol/kg, po administered 1 hr prior to carrageenan challenge through oral gavage measured measured 4 hr after carrageenan treatment by plethysmometer; assay type: functional
[24] = system: Rattus norvegicus; assay: Anti-inflammatory activity in Rattus norvegicus Wistar albino (rat) assessed as inhibition of carrageenan-induced paw edema at 3.62 X 10^2 umol/kg, po administered 1 hr prior to carrageenan challenge through oral gavage measured 2 hr after carrageenan treatment by plethysmometer; assay type: functional
[25] = system: Rattus norvegicus; assay: Anti-inflammatory activity in Rattus norvegicus Wistar albino (rat) assessed as inhibition of carrageenan-induced paw edema at 14.48 X 10^2 umol/kg, po administered 1 hr prior to carrageenan challenge through oral gavage measured measured 2 hr after carrageenan treatment by plethysmometer; assay type: functional
[26] = system: Rattus norvegicus; assay: Toxicity in Rattus norvegicus Wistar albino (rat) assessed as lethargy at 57.92 X 10^2 umol/kg, po; assay type: organism-based; conditions: in vivo
[27] = system: Oryctolagus cuniculus; assay: as §1, with “3.62” for “7.24”, “30” for “5”, “498.8” for “288.5”; assay type: functional
[28] = system: Rattus norvegicus; assay: Anti-inflammatory activity in Rattus norvegicus Wistar albino (rat) assessed as inhibition of carrageenan-induced paw edema at 7.24 X 10^2 umol/kg, po administered 1 hr prior to carrageenan challenge through oral gavage measured measured 3 hr after carrageenan treatment by plethysmometer; assay type: functional
[29] = system: Oryctolagus cuniculus; assay: as §1, with “27.9” for “7.24 x 10^2”, “30” for “5”, “498.8” for “288.5”; assay type: functional
[30] = system: Rattus norvegicus; assay: Anti-inflammatory activity in Rattus norvegicus Wistar albino (rat) assessed as inhibition of carrageenan-induced paw edema at 69.8 X 10^2 umol/kg, po administered 1 hr prior to carrageenan challenge through oral gavage measured measured 2 hr after carrageenan treatment by plethysmometer; assay type: functional
[31] = system: Rattus norvegicus; assay: Toxicity in Rattus norvegicus Wistar albino (rat) assessed as mortality at 69.8 umol/kg, po; assay type: organism-based; conditions: in vivo
[32] = system: Rattus norvegicus; assay: Anti-inflammatory activity in Rattus norvegicus Wistar albino (rat) assessed as inhibition of carrageenan-induced paw edema at 69.8 X 10^2 umol/kg, po administered 1 hr prior to carrageenan challenge through oral gavage measured measured 4 hr after carrageenan treatment by plethysmometer; assay type: functional
[33] = system: Rattus norvegicus; assay: Toxicity in Rattus norvegicus Wistar albino (rat) assessed as mortality at 139.6 umol/kg, po; assay type: organism-based; conditions: in vivo
[34] = system: Rattus norvegicus; assay: Anti-inflammatory activity in Rattus norvegicus Wistar albino (rat) assessed as inhibition of carrageenan-induced paw edema at 69.8 X 10^2 umol/kg, po administered 1 hr prior to carrageenan challenge through oral gavage measured measured 1 hr after carrageenan treatment by plethysmometer; assay type: functional
[35] = system: Oryctolagus cuniculus; assay: as §1, with “27.9” for “7.24 x 10^2”; assay type: functional

In the case of `O=c1ccc(O)ccc1O`, the Activity [1] is reported as “Non-toxic”, the Activity [2] is reported as 256 mm2 and the “inhibition (INH)” value [3] is reported as 75%. The Activity [4] was “Non-toxic”, the “inhibition (INH)” value [5] was 41% and the “inhibition (INH)” value [6] was 76%. The Activity [7] was 267.5 mm2, the mortality [8] was 33% and the LD50 [9] was 6440 µmol/kg. The Activity [10] was “Toxic”, the Activity [11] was “Non-toxic” and the mortality [12] was 16%. The “inhibition (INH)” value [13] was 45%, the “inhibition (INH)” value [14] was 83% and the Activity [15] was “Toxic”. For the same compound, the “inhibition (INH)” value [16] was 48%, the Activity [17] was “Toxic” and the Activity [18] was “Toxic”. The Activity [19] was 212.5 mm2, the “inhibition (INH)” value [20] was 72% and the mortality [21] was 66%. For the same compound, the “inhibition (INH)” value [22] was 42%, the “inhibition (INH)” value [23] was 67% and the “inhibition (INH)” value [24] was 52%. For the same compound, the “inhibition (INH)” value [25] was 75%, the Activity [26] was “Toxic” and the Activity [27] was 196 mm2. The “inhibition (INH)” value [28] was 79%.
In the case of `COc1ccc2c(c1)c(CC(=O)O)c(C)n2C(=O)c1ccc(Cl)cc1` [INDOMETHACIN], the Activity [29] is reported as 279.3 mm2, the “inhibition (INH)” value [30] is reported as 51% and the Activity [31] is reported as “Non-toxic”. The “inhibition (INH)” value [32] was 45%, the Activity [33] was “Toxic” and the “inhibition (INH)” value [34] was 50%. The Activity [35] was 227 mm2.
